Measured values: patent US7812142B2, “Pentose derivatives as anti-hyperglycemic drugs” (Yissum Research Development Company of the Hebrew …, priority 2002, dated 2010)

Legend:
glucose transporter [1] = assay: Non-radioactive fluorimetric dGlc-6-P uptake assay with 10 mM dGlc; type: cell-based; conditions: 10 mM dGlc in the uptake assay
Protocol: Since the standard hexose transport assay utilizes 0.1 mM dGlc in the presence of tracer amount of [^3H] dGlc, the inventors asked whether the results shown above were limited to this particular assay condition. Therefore, experiments were repeated with 10 mM dGlc in the uptake assay. […] The uptake of hexose under these assay conditions was also linear up to 25 min.

glucose transporter [2] = assay: [3H]dGlc uptake with unlabeled carbohydrates (affinity for the glucose transporter) in C2 myotubes; type: cell-based, mouse
Protocol: FIG. 6: Lack of affinity of D-xylose for the glucose transporters. C2 myotubes preconditioned with 20 mM glucose were subjected to [^3H]dGlc uptake assay (0.1 mM dGlc) with increasing concentrations of unlabeled dGlc, glucose or xylose. The unlabeled carbohydrates were added to the [^3H]dGlc solution in the uptake assay.
The inventors have also determined the affinity of D-xylose for the glucose transporter. C2 myotubes preconditioned with 20 mM glucose were subjected to [^3H]dGlc uptake assay (0.1 mM dGlc) in the presence of increasing concentrations of unlabeled dGlc, glucose or xylose. The results of these experiments are depicted in FIG. 6. The affinity of D-xylose for the glucose transporter is 2 orders of magnitude lower compared to glucose. The final concentration of dGlc in the assay was 0.1 mM.

C2 myotubes = assay: dGlc uptake assay in C2 myotubes; type: cell-based, mouse
Protocol: The time-course of D-xylose effect in two types of skeletal muscle cells (L8 myocytes and C2 myotubes) was studied. L8 myocytes and C2 myotubes preconditioned in 20 mM glucose were incubated with 20 mM xylose. After 90 min the cells were washed and incubated with 20 mM glucose, and subjected to a deoxyglucose dGlc uptake assay (14).
The inventors have also measured the effect of different doses of D-xylose in C2 myotubes. C2 myotubes preconditioned with 20 mM glucose received fresh medium containing 20 mM glucose or increasing concentrations of D-xylose. Standard dGlc uptake assay was performed after 1 hr incubation. […] D-xylose augmented the rate of hexose transport ˜2-fold within 1-2 hr; half-maximal stimulation was observed within 20-30 min, as shown in FIG. 2.
However, in the above experiments the cells were exposed to D-xylose after removal of the conditioning glucose concentration. […] The inventors therefore added 20 mM D-xylose to C2 myotubes in the presence of 8 or 16 mM glucose and followed its effect.
It has shown before by the inventors of the present invention that deoxyglucose (dGlc) depresses the hexose transport system in myocytes and that a subsequent incubation with low (even no) glucose fails to reverse this effect of dGlc [Sasson, S et al (1997)]. The inventors have therefore measured the effect of D-xylose on rate of hexose transport following treatment with dGlc. In one experiment, C2 myotubes preconditioned with 2 mM glucose received fresh medium containing 2 mM dGlc. A portion of the cells were washed after 30 min and received 20 MM D-xylose or 2 mM D-glucose, and subjected to a dGlc uptake assay at different time points. In another experiment, L8 myocytes preconditioned with 2 mM glucose were washed and incubated with 2 mM xylose or 2 mM dGlc. A portion of the cells were washed again after 2 hr and incubated with 20 mM xylose, and subjected to a dGlc uptake assay at different time points.
(§1) Uptake assay of the tritiated glucose analogue, 2-deoxy-D-glucose, is routinely performed as described in [Sasson, S. and Cerasi, E. (1986) J. Biol. Chem. 261, 16827-16833].

L6 myotubes = assay: dGlc uptake assay in L6 myotubes; type: cell-based, rat; conditions: 60 μM inhibitor, 23.0 mM glucose (FIG. 11A); EH-40 data not shown
Protocol: FIG. 10: Western blot depicting effect of 3-O-propyl-D-xylose (EH-114), and 1,3-O-dimethylxylopyranoside (EH-101) on the total cell content and plasma membrane abundance of GLUT-4 in the absence or presence of insulin. L6 myotubes were maintained for 48 hr at 23 mM Glucose. The cells were than washed and received fresh medium containing the indicated additions and incubated for additional […]. Insulin was added during the last 30 min of incubation before the dGlc uptake assay.
FIG. 11A: Effect of LY-249002, a PI3-kinase inhibitor, on insulin, D-xylose, EH-101 and EH-114-mediated glucose uptake. L6 myotubes were treated as described in the legend to FIG. 10. The glucose concentration in the culture medium was 23.0 mM. The concentration of LY-294002 was 60 μM. At the end of incubation the cells were taken for the standard dGlc uptake assay. Mean±SEM, n=3.
GLUT-1 and GLUT-4 mediate glucose entry into L6 myotubes. It is established that GLUT-4 is translocated effectively and rapidly to the plasma membrane upon insulin treatment. The inventors looked at the effect of 3-O-propyl-D-xylose EH-114) and 1,3-O-dimethylxylopyranoside (EH-101) on the total cell content and plasma membrane abundance of these transporters in the absence or presence of insulin. L6 myotubes were maintained at 5.0 or 23.0 mM glucose for 48 hr and EH-114 and EH-101 were present during the last 24 hr. The cells were then taken for the standard [^3H]-2-deoxy-D-glucose uptake assay and for the biotinylation procedure for determining the amount of GLUT-1 and GLUT-4 in the plasma membrane. High glucose levels decreased the hexose transport rate by ˜50%. Insulin augmented the transport nearly 2-fold in both cases. EH-114 and EH-101 increased the transport rate 2-3-fold in the absence of insulin. Together with insulin the uptake rate was increased nearly 3-fold.
The inventors also tested the hypothesis that the active D-xylose derivatives augment the hexose transport capacity in L6 myotubes by translocating GLUT-4 to the plasma membrane not via the common insulin-regulated pathway. For this experiment, a selective inhibitor of the enzyme PI3-kinase, LY-249002, which is a key enzyme in the cellular transduction mechanism of insulin, was utilized. […] These findings also agree well with the longer onset of action of these derivatives as compared to the rapid action of insulin. Similar results were obtained when LY-249002 was present together with the derivatives throughout the entire incubation period.
as §1

[3] = Half-life of D-xylose measured in rats; conditions: rat, in vivo

**Q.** What does the source list for `O=C[C@H](O)[C@@H](O)[C@H](O)CO` [D-xylose]?
**A.** competition for transport at high hexose level (glucose transporter [1]): does not compete for transport via the glucose transporter; affinity for the glucose transporter compared to glucose (glucose transporter [2]; 0.1 mM dGlc (FIG. 6)): 2 orders of magnitude lower; competition with [3H]dGlc (glucose transporter [2]; 0.1 mM dGlc, increasing unlabeled carbohydrate): much weaker competitor; molar excess necessary to achieve 50% inhibition of transport (glucose transporter [2]; over 0.1 mM dGlc): at least 100 fold molar excess; time to half-maximal stimulation (C2 myotubes): 20 to 30 min; rate of hexose transport downregulated by dGlc (C2 myotubes; 20 mM D-xylose after 30 min 2 mM dGlc (FIG. 4A)): increased the rate of hexose transport; hexose transport in the presence of glucose (C2 myotubes; 20 mM D-xylose with 8 or 16 mM glucose (FIG. 3)): augment hexose transport; effect of pentoses on the rate of hexose transport (C2 myotubes; 20 mM pentose, preconditioned with 20 mM glucose (FIG. 7)): most effective pentose; rate of glucose transport (C2 myotubes; 20 mM xylose, cells preconditioned in 20 mM glucose (FIG. 1)): increases the rate of glucose transport; concentration at which maximal effect is obtained (C2 myotubes; dose-response, 1 hr incubation, preconditioned with 20 mM glucose (FIG. 2)): 20 mM; augmentation of the rate of hexose transport (C2 myotubes; within 1-2 hr): ~2 fold; effect of PI3-kinase inhibitor LY-249002 on the substance's stimulation of hexose transport (L6 myotubes): failed to affect; half-life [3]: 30 to 60 min
